One data set has as its system KMS-12-BM. Description: mouse xenograft model KMS-12-BM. It counts as in vivo. Particulars: single agent Compound B.
In a further data set the test system is MV-4-11. In words: Cell Titer Glo viability, dose matrix, Chalice analysis. It counts as cell-based. The method, then: (§1) Compound stock was freshly prepared in the appropriate culture medium and manually added to the plates by electronic multichannel pipette in three replicates. […] The viability of cells was assessed after 72 hours of treatment by quantification of cellular ATP levels via Cell Titer Glo (Promega #G7571) according to the manufacturer's protocol. Plates were read on a luminescence plate reader (Victor X4, Perkin Elmer).
(§2) Each compound is diluted threefold times and the dashes below represent the threefold dilution between each number.

Another data set has as its system MOLM-13. The data set is described as above. In kind it is cell-based. The method, then:
as §1, §2

These results are taken from US20160175293A1, “PIM KINASE INHIBITOR COMBINATIONS” (priority 2013, published 2016).

As to `C[C@@H]1C[C@H](N)C[C@H](c2ccncc2NC(=O)c2ccc(F)c(-c3c(F)cccc3F)n2)C1` [Compound A, N-(4-((1R,3S,5S)-3-amino-5-methylcyclohexyl)pyridin-3-yl)-6-(2,6-difluorophenyl)-5-fluoropicolinamide], where the note is “Day 14 (steady state), 200 mg to 350 mg dose”, the “PK exposure at steady state” value was “plateau”. Moreover, where the note is “dose range of 70 mg-250 mg, Day 1”, the “PK exposure (Cmax AUC) dose proportionality” value is listed as “over proportional”. Also, the “increase of exposure at 500 mg compared to 200 mg to 350 mg dose” value (steady state) was “about 2 fold”.

In the case of `Cc1nc(NC(=O)N2CCC[C@H]2C(N)=O)sc1-c1ccnc(C(C)(C)C(F)(F)F)c1` [Compound B, (S)-pyrrolidine-1,2-dicarboxylic acid 2-amide 1-({4-methyl-5-[2-(2,2,2-trifluoro-1,1-dimethyl-ethyl)-pyridin-4-yl]-thiazol-2-yl}-amide)], the anti-tumor activity entry with KMS-12-BM was “did not demonstrate in anti-tumor activity”.

Consider `CO[C@@H]1[C@H](N(C)C(=O)c2ccccc2)C[C@H]2O[C@]1(C)n1c3ccccc3c3c4c(c5c6ccccc6n2c5c31)C(=O)NC4` [PKC412, midostaurin], for which the single agent activity result in the data set on MV-4-11 and in the data set with MOLM-13 was “active” throughout.
